What was measured:
Type in all cases: cell-based, human
[1] = tested on: sporadic PD patient fibroblasts; test: Cellular ATP levels in sporadic PD patient fibroblasts, full ATP assay; conditions: Homo sapiens, Fibroblast, 24 h, 3 sporadic PD patient fibroblasts
Experimental: (§1) Primary fibroblast cells were cultured continuously in Glucose based medium (high glucose (4500 mg/L) Dulbecco's Modified Eagle's medium (DMEM; Sigma-Aldrich) supplemented with 10% fetal bovine serum (Sigma-Aldrich), 100 IU/mL penicillin, 100 μg/mL streptomycin (Lonza), 1 mM sodium pyruvate (Sigma-Aldrich) and 50 μg/mL uridine (Sigma-Aldrich)). Unless otherwise stated, 24 hours prior to analysis, the Glucose based medium was exchanged for Galactose based medium (glucose-free DMEM (Gibco) with the same supplementation and in addition, 5 mM galactose (Sigma-Aldrich)). All cells were assessed between passage 6-10.
The ATP protocol is generally as described in Mortiboys et al 2008. Briefly, fibroblasts were cultured as and plated into white 384 well plates at a concentration of 5000 cells per well in 50 μl of media volume. The plates are left overnight in an incubator to allow the fibroblasts to adhere to the plate surface. The following morning the Glucose based medium is replaced with 25 μl of Galactose based medium. The plates were then spiked with the compounds using a ECHO 550 liquid handling system. The wells were dosed to provide an 8-point concentration range of 0.06 nM-300 nM of compound. After dosing the wells are topped up with a further 25 μl of Galactose based medium and then left in an incubator for 24 hours. Following this incubation, the medium is removed from the plate and the wells are washed twice with sterile PBS. The wells are filled with 25 μl of Sterile PBS followed by 12.5 μl of Lysis solution from the ATPlite™ Luminescence ATP detection assay system (Perkin Elmer), including 16 cell free wells to use as blank controls. The plate is then placed on a rotary shaker for 5 mins at 700 rpm. Following the shaking 12.5 μl of ATP substrate solution (Perkin Elmer) is added to each well and a further 5 min of shaking. The plate is then placed in darkness for 10 minutes prior to reading. Using a PHERAStar® plate reader, luminescence intensity is recorded. Following the ATP assay the plates are immediately assayed for DNA content in a CyQUANT® assay.
(§2) Immediately following The ATP assay DNA content is assessed with the CyQUANT® NF Cell Proliferation Assay Kit (ThermoFisher). CyQUANT® buffer is prepared immediately before the assay and is comprised of 1 μl CyQUANT® dye per ml×1 HBSS solution. 12.5 μl of CyQUANT® buffer is added to each well. Plate left in incubator for 1 hour then read on a PHERAStar© Plate reader with excitation at 497 nm and emission at 520 nm.
ATP Quantification for each well is determined using the following formula: […]
After the assays had been repeated in triplicate per line and compound the data was then inputted into Graph pad Prism 7 software suite where a dose response curve is generated using the default “[Agonist] vs response(three parameters)” equation.
From this EC50 values, lowest response and maximal response were taken and used to calculate the Geometric mean between the 5 different lines assessed.

[2] = tested on: iNeurons from sPD patients; test: Mitochondrial reactive oxygen species (ROS) in iNeurons from sPD patients; conditions: sPD patient iNeurons treated; untreated sPD patients 115
Experimental: (§3) The fibroblasts lines and iNPC lines have previously been characterised and published in Carling et al, 2020.
(§4) Briefly, iNPCs are plated in a 6-well plate and cultured for 2 days in DMEM/F-12 medium with Glutamax™ supplemented with 1% NEAA, 2% B27 (Gibco) and 2.5 μM of DAPT. On day 3, DAPT is removed and the medium is supplemented with 1 μM smoothened agonist (SAG) and FGF8 (75 ng/ml) for additional 10 days. Neurons are replated at this stage. Subsequently SAG and FGF8 are withdrawn and replaced with BDNF (30 ng/ml), GDNF (30 ng/ml), TGF-b3 ([…]) and dcAMP (2 mM, Sigma) for 15 days, as previously described Schwartzentruber et al, 2020 and Carling et al, 2020. Dopaminergic neurons were treated with compounds at concentrations of 0.1 nM, 1 nM, 3 nM, 10 nM, 30 nM and 100 nM dosing every 3 days for the last 12 days of differentiation.
(§5) iNeurons were treated every 3 days for the last 12 days of the differentiation protocol. Cells are plated in 96 well plates; for live imaging cells are incubated for one hour at 37° C. with 80 nM tetramethlyrhodamine (TMRM), 1 μM LysoTracker® Green (Invitrogen) and Hoechst Stain solution (Sigma) at 1 μM before imaging using Opera Phenix™. Cellular ATP measurements are undertaken using ATPlite kit (Perkin Elmer) as per manufacturer's instructions. Mitochondrial reactive oxygen species generation was assessed using mitochondrial NpFR2 (probe; a kind gift from Dr Liz New, University of Sydney, Australia) at 20 μM and Hoechst stain solution at 1 μM for 30 mins at 37° C., then the dyes are removed and cells images using Opera Phenix™. Images generated from the live imaging experiments were analysed using Harmony® (Perkin Elmer software). We developed protocols in order to segment nucleus, cell boundary and processes, mitochondria, lysosomes, autophagosomes. We only analysed the z projection images collected from the z stacks.

[3] = tested on: iNeurons from sPD patients; test: Mitochondrial membrane potential (MMP) in iNeurons from sPD patients; conditions: for EC50: Homo sapiens, sPD patient iNeurons, dosing every 3 days for last 12 days of differentiation; for MMP normalisation (% of controls): sPD patient iNeurons treated, untreated sPD patients 52
Experimental: as §3, §4, §5

[4] = tested on: iNeurons from sPD patients; test: Cellular ATP in iNeurons (dopaminergic neurons derived from sPD patients); conditions: for EC50: Homo sapiens, Neuron, sPD patient iNeurons, dosing every 3 days for last 12 days of differentiation; for ATP normalisation (% of controls): sPD patient iNeurons treated, untreated sPD patients 50
Experimental: as §3, §4, §5

[5] = tested on: sporadic PD patient fibroblasts; test: Mitochondrial membrane potential (MMP, TMRM) in sporadic PD patient fibroblasts; conditions: Homo sapiens, Fibroblast, 24 h, 3 sporadic PD patient fibroblasts
Experimental: as §1
Fibroblasts were cultured and plated into a greiner black 384 μClear® plate at a concentration of 1000 cells per well in 50 μl of media volume. The plates are left overnight in an incubator to allow the fibroblasts to adhere to the plate surface. The following morning the Glucose based medium is replaced with 25 μl of Galactose based medium. The plates were then dosed with the compounds using an ECHO® 550 liquid handling system. The wells were dosed to provide an 8-point concentration range of 0.06 nM-300 nM of compound. After dosing the wells are topped up with a further 25 μl of Galactose based medium and then left in an incubator for 24 hours. After 24 hours, the medium is removed from the wells and replaced with 25 μl phenol free Minimal essential medium supplemented with 10% FBS, 1% Penicillin-streptomycin, 1% sodium pyruvate, 0.1% uridine, 1% non-essential amino acids and 1% MEM vitamins with 80 nM TMRM (Sigma) and 10 μM Hoechst Stain (Sigma). The plate is returned to the incubator for another hour after which the stain medium is removed and replaced with 25 μl Phenol free MEM. The plate is then imaged using an IN Cell high content microscope (GE Healthcare) with fields of view per well in 2 channels, Cy3 excitation 542 nm, emission 604-64 nm; and the DAPI excitation 350 nm, emission 450-55 nm at 37° C. with CO2. After imaging the plate is disposed of and the images are Data mined using the INCell developer Toolkit (GE Healthcare).
After the assays had been repeated in triplicate per line and compound the data was then inputted into Graph pad Prism 7 software suite where a dose response curve is generated using the default “[Agonist] vs response(three parameters)” equation. […]

[6] = tested on: sporadic PD patient fibroblasts; test: Cellular ATP levels in sporadic PD patient fibroblasts, Preliminary ATP assay; conditions: Homo sapiens, Fibroblast, 24 h, % of vehicle treated sPD fibroblasts, 3 sporadic PD patients
Experimental: In some cases, a preliminary ATP protocol was used in which EC50 was not determined. The preliminary ATP protocol is generally as described in Mortiboys et al 2008. Briefly, fibroblasts were cultured and plated into white, clear-bottom 384 well plates at a concentration of 4000 cells per well in 50 μl of media volume. The plates are left overnight in an incubator to allow the fibroblasts to adhere to the plate surface. The following morning the Glucose based medium is replaced with 25 μl of Galactose based medium. The cells were then dosed with 100 nM and 1 μM concentrations of the compounds using a ECHO 550 liquid handling system. After dosing the wells are topped up with a further 25 μl of Galactose based medium and then left in an incubator for 24 hours. Following this incubation, the medium is removed from the plate and the wells are washed twice with sterile PBS. The wells are filled with 20 μl of Sterile PBS followed by 10 μl of Lysis solution from the ATPlite™ Luminescence ATP detection assay system (Perkin Elmer), including 14 cell free wells to use as blank controls. The plate is then placed on a rotary shaker for 10 mins at 700 rpm. Following the shaking 10 μl of ATP substrate solution (Perkin Elmer) is added to each well and a further 5 min of shaking. The plate is then incubated in the dark for 10 minutes prior to reading. Using a FLUOstar® Omega plate reader, luminescence intensity is recorded. Following the ATP assay the plates are immediately assayed for DNA content in a CyQUANT® assay.
as §2, with “of 2” for “of 1”, “solution. 10” for “solution. 12.5”, “well. Cell plates were then incubated” for “well. Plate left in incubator”, “hour before being” for “hour then”, “a FLUOStar®” for “a PHERAStar©”
The ATP Quantification for each well is determined as set out above.

[7] = tested on: iNeurons from sPD patients; test: Activated caspase 3 levels (apoptosis) in iNeurons from sPD patients; conditions: sPD patient iNeurons treated; untreated sPD patients 162
Experimental: as §3, §4
(§6) Cells are plated into 96 well plates and fixed using 4% paraformaldehyde for 30 minutes. After PBS washes cells are permeabilised using 0.1% Triton™ X-100 for 10 minutes and blocked using 5% goat serum for 1 hour. Cells are incubated with primary antibodies βIII tubulin (Millipore); activated caspase 3 (Cell Signaling); at 4° C. for 16 hours. Cells are washed using PBS-Tween® and incubated with Alexa Fluor™-conjugated secondary antibodies 488 and 568 (Invitrogen) and Hoescht (Sigma) 1 μM prior to imaging. Imaging was performed using the Opera Phenix™ high content imaging system (Perkin Elmer).

[8] = tested on: iNeurons from sPD patients; test: Neuronal morphology (elongation) in iNeurons from sPD patients; conditions: sPD patient iNeurons treated; untreated sPD patients 48
Experimental: as §3, §4, §6
iNeurons were treated every 3 days for the last 12 days of the differentiation protocol. […] Mitochondrial reactive oxygen species generation was assessed using mitochondrial NpFR2 (probe; a kind gift from Dr Liz New, University of Sydney, Australia) at 20 μM and Hoechst stain solution at 1 μM for 30 mins at 37° C., then the dyes are removed and cells images using Opera Phenix™. Images generated from the live imaging experiments were analysed using Harmony® (Perkin Elmer software). […] We only analysed the z projection images collected from the z stacks.

SMILES | EC50 ([1]; 8-point range 0.06 nM-300 nM) [nM] | Emax at 0.3 µM ([1]; max response with highest dose of compound (300 nM), read-out: ATP % of vehicle, top %) [%] | activity at 60 pM ([1]; max response with lowest dose of compound (0.06 nM), read-out: ATP % of vehicle, bottom %) [%] | ROS normalisation (% of controls) [2] | EC50 [3] [nM] | MMP normalisation (% of controls) [3] | EC50 [4] [nM] | ATP normalisation (% of controls) [4] | EC50 ([5]; 8-point range 0.06 nM-300 nM) [nM] | Emax ([5]; max response with highest dose of compound (300 nM), read-out: MMP % of vehicle, top %) [%] | activity at 60 pM ([5]; max response with lowest dose of compound (0.06 nM), read-out: MMP % of vehicle, bottom %) [%] | activity at 0.1 µM ([6]; 100 nM, read-out: Average ATP Response 100 nM) [%] | activity at 1 µM ([6]; 1 μM, read-out: Average ATP Response 1 μM) [%] | Activated caspase 3 levels [7] | Neuronal morphology (elongation; % controls) [8] [% controls]
C[C@H](CCC(=O)O)[C@H]1CC[C@H]2[C@@H]3[C@@H](O)C[C@@H]4CNCC[C@]4(C)[C@H]3CC[C@]12C.Cl [Compound 28a, 3-Aza-7β-hydroxy-5β-cholan-24-oic acid hydrochloride salt] | 10.9 | 137 | 98.3 | 111 % of controls | 10.3 | 71 % of controls | 6.5 | 89.6 % of controls | 4.58 | 120 | 96.8 | – | – | – | –
C[C@H](CCC(=O)O)[C@H]1CC[C@H]2[C@@H]3[C@@H](O)C[C@@H]4C[C@H](O)CC[C@]4(C)[C@H]3CC[C@]12C [UDCA, ursodeoxycholic acid, reference compound] | – | – | – | 110 % of controls | 7.3 | 73 % of controls | 5 | 82 % of controls | – | – | – | 105 | 98.9 | 143 % of level in iNeurons from Controls | 64
